The values that follow are results of earlier work, collected in patent US9950044B2, “Treatment of pulmonary vascular remodeling with neprilysin” (THE REGENTS OF THE UNIVERSITY OF COLORADO, A BODY CORPORATE, priority 2010, dated 2018).

The subject of one series is human IPAH patients. Particulars: cited from earlier work.
The next series concerns VIP KO mice. Conditions: IP injections every other day; cited from earlier work.
In a further series the test system is NEP. Conditions: exogenous VIP; cited from earlier work.
The subject of series [1] is human PA SMCs from IPAH patients. Conditions: cells from IPAH patients; cited from earlier work.
Where [2] appears, read: human IPAH patients, inhalation.

For the substance “VIP: 28 amino acid peptide with a molecular weight of 3.33 kD”, in the series with human IPAH patients (setting [2]), the PaO2 result is “significant improvement” and the exercise capacity entry is given as “significant improvement”. In the series with human IPAH patients (human, in vivo), the “untoward effects reported by subjects” value is given as “no untoward effects”. Further, in the series on VIP KO mice, the PA medial thickening result is reported as “reduced” and the RV hypertrophy result is “reduced”. Moreover, the “effect on NEP enzymatic activity” value in the series on NEP was “did not affect”. Further, the “in vitro proliferation of human PA SMCs” value in series [1] was “inhibited”.
